Measured values published in patent US20230322767A1, “ARYL SUBSTITUTED PYRROLO-PYRIDINONES AND THERAPEUTIC USES THEREOF” (Bayer Aktiengesellschaft, priority 2020, published 2023).
pIC50: −log10 of the molar value. Like-named read-outs stand apart in the source and are kept apart here.

Tests used:
Assay type in all cases: biochemical
CSNK1A1 = CSNK1A1 (Homo sapiens (Human), UniProt P48729); assay: CSNK1A1 Assay 2 (ADP-Glo, 1 μM ATP); details: median, read-out: CSNK1A1 Assay 2 IC50 [mol/l] (median)
Summary of the method: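 Enzyme (~0.0375 ng/μL) preincubated 15 min at 22° C with compound in HEPES pH 7.5 buffer, then reacted with 1 μM ATP and biotin-Ahx-KRRRAL-pS-VASLPGL peptide. ADP product measured by ADP-Glo luminescence after 1 h ATP depletion and 1 h detection at 22° C.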

CSNK1D = CSNK1D (Homo sapiens (Human), UniProt P48730); assay: CSNK1D Assay (ADP-Glo, 1 μM ATP); details: median, read-out: CSNK1D IC50 [mol/l] (median)
Summary of the method: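 Enzyme preincubated with compound 15 min at 22° C in 50 mM HEPES pH 7.5 buffer with 10 mM MgCl2, 1 mM DTT; kinase reaction run at 1 μM ATP with biotinylated peptide substrate. ADP formed was detected by ADP-Glo luminescence as the measure of activity.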

[1] = target: wild-type Epidermal Growth Factor Receptor (EGFR) (Homo sapiens (Human), UniProt P00533); assay: WT-EGFR Kinase Assay (TR-FRET, 2 mM ATP)
Summary of the method: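 GST-tagged human EGFR (R669–A1210, Sf9-expressed) preincubated 15 min at 22° C with compound in pH 7.0 Hepes/MgCl2 buffer, then reacted at 2 mM ATP with a biotinylated peptide substrate. Phosphorylation detected by TR-FRET (streptavidin-XL665, Tb-cryptate anti-phosphotyrosine) as the 665/620 nm emission ratio.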

[2] = EGFR Wildtyp 2 mM ATP IC50 [mol/l] (median), median or individual measurements

Sequence of wild-type Epidermal Growth Factor Receptor (EGFR) (P00533 669-1210): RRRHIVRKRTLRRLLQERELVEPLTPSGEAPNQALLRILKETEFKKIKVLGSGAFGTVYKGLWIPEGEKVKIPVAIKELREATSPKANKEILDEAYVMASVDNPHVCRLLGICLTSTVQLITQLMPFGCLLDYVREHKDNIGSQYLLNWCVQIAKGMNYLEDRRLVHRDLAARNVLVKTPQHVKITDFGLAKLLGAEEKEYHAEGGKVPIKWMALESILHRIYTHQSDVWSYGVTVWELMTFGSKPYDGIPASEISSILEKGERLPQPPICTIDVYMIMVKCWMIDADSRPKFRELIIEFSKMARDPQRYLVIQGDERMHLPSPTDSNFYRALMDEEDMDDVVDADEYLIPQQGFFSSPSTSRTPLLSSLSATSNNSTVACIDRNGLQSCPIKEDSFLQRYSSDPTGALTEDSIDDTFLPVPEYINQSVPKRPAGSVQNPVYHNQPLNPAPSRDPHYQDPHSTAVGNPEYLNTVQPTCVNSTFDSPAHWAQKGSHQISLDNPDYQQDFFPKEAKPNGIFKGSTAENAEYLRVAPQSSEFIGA
Sequence of CSNK1A1 (P48729 whole entry): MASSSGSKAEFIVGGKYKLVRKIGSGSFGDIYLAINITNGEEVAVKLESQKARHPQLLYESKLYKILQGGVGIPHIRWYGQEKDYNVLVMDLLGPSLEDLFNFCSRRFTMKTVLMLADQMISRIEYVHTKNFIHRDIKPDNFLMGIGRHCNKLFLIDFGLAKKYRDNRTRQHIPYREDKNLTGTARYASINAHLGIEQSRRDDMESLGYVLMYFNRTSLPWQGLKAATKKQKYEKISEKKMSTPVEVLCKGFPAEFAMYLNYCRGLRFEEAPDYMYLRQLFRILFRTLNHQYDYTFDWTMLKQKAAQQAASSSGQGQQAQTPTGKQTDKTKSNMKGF
Sequence of CSNK1D (P48730 whole entry): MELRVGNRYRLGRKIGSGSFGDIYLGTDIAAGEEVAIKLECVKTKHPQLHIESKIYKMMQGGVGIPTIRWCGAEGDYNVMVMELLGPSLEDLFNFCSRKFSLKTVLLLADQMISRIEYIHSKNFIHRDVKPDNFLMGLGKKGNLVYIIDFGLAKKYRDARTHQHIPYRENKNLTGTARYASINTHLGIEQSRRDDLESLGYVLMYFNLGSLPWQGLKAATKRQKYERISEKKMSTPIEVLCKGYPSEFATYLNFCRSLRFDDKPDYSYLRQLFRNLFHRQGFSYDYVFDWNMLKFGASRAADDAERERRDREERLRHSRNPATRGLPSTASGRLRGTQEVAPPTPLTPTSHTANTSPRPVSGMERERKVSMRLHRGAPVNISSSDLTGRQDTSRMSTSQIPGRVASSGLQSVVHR

Compound	pIC50 (CSNK1A1)	pIC50 (CSNK1D)	pIC50 [1, 2]	pIC50 ([1]; read-out: EGFR Wildtyp 2 mM ATP IC50 [mol/l] (median), median or individual measurements)
CC(C(=O)Nc1cc(-c2[nH]c3ccn(C)c(=O)c3c2-c2ccccc2O)ccn1)c1ccc(F)cc1 (racemic) [Example 124, 2-(4-fluorophenyl)-N-{4-[3-(2-hydroxyphenyl)-5-methyl-4-oxo-4,5-dihydro-1H-pyrrolo[3,2-c]pyridin-2-yl]pyridin-2-yl}propanamide]	8.25	7.96	< 4.70	
Cc1ccc(-c2c(-c3ccnc(NC(=O)C(C)c4ccc(F)cc4)c3)[nH]c3ccn(C)c(=O)c23)s1 (racemic) [Example 125, 2-(4-fluorophenyl)-N-{4-[5-methyl-3-(5-methyl-2-thienyl)-4-oxo-4,5-dihydro-1H-pyrrolo[3,2-c]pyridin-2-yl]pyridin-2-yl}propanamide]	8.48	8.23	< 5.79	< 5.79
CC(C(=O)Nc1cc(-c2[nH]c3ccn(C)c(=O)c3c2-c2ccnc(N)c2)ccn1)c1ccc(F)cc1 (racemic) [Example 126, N-{4-[3-(2-aminopyridin-4-yl)-5-methyl-4-oxo-4,5-dihydro-1H-pyrrolo[3,2-c]pyridin-2-yl]pyridin-2-yl}-2-(4-fluorophenyl)propanamide]	7.26	7.20	< 4.70	
CC(C(=O)Nc1cc(-c2[nH]c3ccn(C)c(=O)c3c2-c2cc(F)ccc2C#N)ccn1)c1ccc(F)cc1 (racemic) [Example 127, N-{4-[3-(2-cyano-5-fluorophenyl)-5-methyl-4-oxo-4,5-dihydro-1H-pyrrolo[3,2-c]pyridin-2-yl]pyridin-2-yl}-2-(4-fluorophenyl)propanamide]	7.48	7.48	< 4.70	
CN1CCc2[nH]c(-c3ccnc(NC(=O)C(CC(F)F)c4ccc(F)cc4)c3)c(-c3cc(F)ccc3C#N)c2C1=O (racemic) [Example 128, N-{4-[3-(2-cyano-5-fluorophenyl)-5-methyl-4-oxo-4,5,6,7-tetrahydro-1H-pyrrolo[3,2-c]pyridin-2-yl]pyridin-2-yl}-4,4-difluoro-2-(4-fluorophenyl)butanamide]	7.85	7.92	< 4.70	
Cc1ncc(-c2c(-c3ccnc(NC(=O)C(CC(F)F)c4ccc(F)cc4)c3)[nH]c3c2C(=O)N(C)CC3)s1 (racemic) [Example 129, 4,4-difluoro-2-(4-fluorophenyl)-N-{4-[5-methyl-3-(2-methyl-1,3-thiazol-5-yl)-4-oxo-4,5,6,7-tetrahydro-1H-pyrrolo[3,2-c]pyridin-2-yl]pyridin-2-yl}butanamide]	7.82	7.89	< 4.70	
CC(C(=O)Nc1cc(-c2[nH]c3ccn(C)c(=O)c3c2-c2cccs2)ccn1)c1ccc(F)cc1 (racemic) [Example 130, 2-(4-fluorophenyl)-N-{4-[5-methyl-4-oxo-3-(2-thienyl)-4,5-dihydro-1H-pyrrolo[3,2-c]pyridin-2-yl]pyridin-2-yl}propanamide]	8.62	8.41	< 4.70	
CC(C(=O)Nc1cc(-c2[nH]c3ccn(C)c(=O)c3c2-c2ccsc2)ccn1)c1ccc(F)cc1 (racemic) [Example 131, 2-(4-fluorophenyl)-N-{4-[5-methyl-4-oxo-3-(3-thienyl)-4,5-dihydro-1H-pyrrolo[3,2-c]pyridin-2-yl]pyridin-2-yl}propanamide]	8.15	8.00	< 4.70	
Cc1c(-c2ccnc(NC(=O)C(C)c3ccc(F)cc3)c2)[nH]c2ccn(C)c(=O)c12 (racemic) [Example 132, N-[4-(3,5-dimethyl-4-oxo-4,5-dihydro-1H-pyrrolo[3,2-c]pyridin-2-yl)pyridin-2-yl]-2-(4-fluorophenyl)propanamide]	8.20	7.96	< 4.70	
